Data taken from US20120157471A1, “BENZIMIDAZOLE DERIVATIVES” (PFIZER INC., priority 2009, published 2012).

Experiments:
Gli-Luc/MEF cells (Smo) = experiment: Gli-Luc/MEF assay (Shh-stimulated luciferase reporter under the Gli response element); type: cell-based, mouse; conditions: Mus musculus, MEF, 48 h
Method in brief: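 Mouse Gli-Luc/MEF cells dosed with compound (3-fold series, […]) plus 2 μg/mL recombinant mouse Shh, then incubated 48 h at 37° C, 5% CO2. Bright-Glo luminescence read; IC50 calculated from inhibition of Shh-stimulated luciferase.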

[1] = molecular target: T1, human Smo (amino acids 181-787) (Homo sapiens, UniProt Q99835); experiment: Smo radioligand competition binding assay (displacement of 3H-PF-03451358 from HEK293 membranes); conditions: for inhibition at 0.05 µM: 0.05 μM test compound, displacement of 3H-PF-03451358, read-out: SMO % inh. @ 0.05 μM; for IC50: radioligand competition binding
T1 construct: expressed in transfected cells; membrane preparation
T1 sequence (Q99835 181-787): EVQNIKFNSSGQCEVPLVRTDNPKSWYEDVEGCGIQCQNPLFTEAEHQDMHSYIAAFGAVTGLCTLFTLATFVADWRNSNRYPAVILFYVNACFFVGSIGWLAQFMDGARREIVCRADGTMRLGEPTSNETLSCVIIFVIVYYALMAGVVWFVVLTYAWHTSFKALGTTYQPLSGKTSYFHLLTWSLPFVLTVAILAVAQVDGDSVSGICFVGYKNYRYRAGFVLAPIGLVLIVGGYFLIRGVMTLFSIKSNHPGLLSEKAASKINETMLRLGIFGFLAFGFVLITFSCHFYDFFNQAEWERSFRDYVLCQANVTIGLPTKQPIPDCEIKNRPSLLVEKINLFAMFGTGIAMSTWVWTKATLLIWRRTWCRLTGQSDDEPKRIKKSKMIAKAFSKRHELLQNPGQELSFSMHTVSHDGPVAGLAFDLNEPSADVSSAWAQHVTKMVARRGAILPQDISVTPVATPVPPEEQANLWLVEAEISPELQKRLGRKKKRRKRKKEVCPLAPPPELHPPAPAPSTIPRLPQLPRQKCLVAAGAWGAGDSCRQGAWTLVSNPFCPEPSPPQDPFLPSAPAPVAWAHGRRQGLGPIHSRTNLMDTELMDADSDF
Method in brief: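 Membranes (40 μg protein/well) from HEK293 expressing murine Igk-leader-fused Smo 181-787 incubated 2 h at room temperature with 3 nM 3H-PF-03451358 in Tris pH 7.5/NaCl/MgCl2/EDTA/BSA buffer; filter-bound counts by scintillation. Nonspecific binding with 30 μM cold PF-03451358; IC50 from four-parameter fit of % inhibition.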

Compound	IC50 (Gli-Luc/MEF cells (Smo))	inhibition at 0.05 µM [1]	IC50 [1]
CNC(=O)N1CCN(c2ncc(Cl)c(-c3nc4ccccc4n3C)n2)CC1 [Example C-7, 4-[5-Chloro-4-(1-methyl-1H-benzimidazol-2-yl)pyrimidin-2-yl]-N-methylpiperazine-1-carboxamide]	18 nM	95%	14 nM
COC(=O)N(C)C1CCN(c2cc(-c3nc4ccccc4n3C)c(Cl)cn2)C1 (centres unmarked) [Example A-178, methyl {1-[5-chloro-4-(1-methyl-1H-benzimidazol-2-yl)pyridin-2-yl]pyrrolidin-3-yl}methylcarbamate]	17 nM	92%	43 nM
CCS(=O)(=O)N1CCN(c2cc(-c3nc4ccccc4n3C)c(F)cn2)CC1 [Example D-5, 2-{2-[4-(ethylsulfonyl)piperazin-1-yl]-5-fluoropyridin-4-yl}-1-methyl-1H-benzimidazole]	17 nM	97%	18 nM
COC(=O)N1CCN(c2ncc(Cl)c(-c3nc4ccccc4n3C)n2)CC1 [Example C-5, Methyl 4-[5-chloro-4-(1-methyl-1H-benzimidazol-2-yl)pyrimidin-2-yl]piperazine-1-carboxylate]	9 nM	96%	14 nM
CC(=O)NC1CCN(c2cc(-c3nc4ccccc4n3C)c(Cl)cn2)C1 (centres unmarked) [Example A-42, N-{1-[5-chloro-4-(1-methyl-1H-benzimidazol-2-yl)pyridin-2-yl]pyrrolidin-3-yl}acetamide]	92 nM	72%	131 nM
Cn1c(-c2cc(N3CCNC(=O)C3)ncc2Cl)nc2ccccc21 [Example A-174, 4-[5-chloro-4-(1-methyl-1H-benzimidazol-2-yl)pyridin-2-yl]piperazin-2-one]	39 nM	86%	39 nM
Cn1c(-c2nc(N3CCN(C=O)CC3)ccc2Cl)nc2ccccc21 [Example B-5, 4-[5-chloro-6-(1-methyl-1H-benzimidazol-2-yl)pyridin-2-yl]piperazine-1-carbaldehyde]	27 nM	92%	27 nM
Cn1c(-c2ccnc(N3CCC(NS(C)(=O)=O)CC3)c2)nc2ccccc21 [Example A-17, N-{1-[4-(1-methyl-1H-benzimidazol-2-yl)pyridin-2-yl]piperidin-4-yl}methanesulfonamide]	6 nM	99%	13 nM
COCc1nc(C2CCN(c3cc(-c4nc5ccccc5n4C)c(Cl)cn3)CC2)no1 [Example A-49, 2-(5-chloro-2-{4-[5-(methoxymethyl)-1,2,4-oxadiazol-3-yl]piperidin-1-yl}pyridin-4-yl)-1-methyl-1H-benzimidazole]	7 nM	100%	11 nM
Cn1ccnc1C(O)C1CCN(c2cc(-c3nc4ccccc4n3C)c(Cl)cn2)CC1 (centres unmarked) [Example A-73, {1-[5-chloro-4-(1-methyl-1H-benzimidazol-2-yl)pyridin-2-yl]piperidin-4-yl}(1-methyl-1H-imidazol-2-yl)methanol]	25 nM	93%	45 nM
CN(C1CCN(c2cc(-c3nc4ccccc4n3C)c(Cl)cn2)C1)S(C)(=O)=O (centres unmarked) [Example A-181, N-{1-[5-chloro-4-(1-methyl-1H-benzimidazol-2-yl)pyridin-2-yl]pyrrolidin-3-yl}-N-methylmethanesulfonamide]	9 nM	98%	11 nM
C[C@H]1CN(S(C)(=O)=O)CCN1c1cc(-c2nc3ccccc3n2C)c(Cl)cn1 [Example A-196, 2-{5-chloro-2-[(2S)-2-methyl-4-(methylsulfonyl)piperazin-1-yl]pyridin-4-yl}-1-methyl-1H-benzimidazole]	6.7 nM	99%	8 nM
CC(=O)N1CCCN(c2cc(-c3nc4cccnc4n3C)c(Cl)cn2)CC1 [Example A-39, 2-[2-(4-acetyl-1,4-diazepan-1-yl)-5-chloropyridin-4-yl]-3-methyl-3H-imidazo[4,5-b]pyridine]	30 nM	92%	45 nM
CC(=O)N1CCN(c2ncc(Cl)c(-c3nc4ccccc4n3C)n2)CC1 [Example C-1, 2-[2-(4-Acetylpiperazin-1-yl)-5-chloropyrimidin-4-yl]-1-methyl-1H-benzimidazole]	7 nM	96%	12 nM
Cn1c(-c2cc(N3CCOC(c4nc(C5CC5)no4)C3)ncc2Cl)nc2ccccc21 (centres unmarked) [Example A-76, 2-{5-chloro-2-[2-(3-cyclopropyl-1,2,4-oxadiazol-5-yl)morpholin-4-yl]pyridin-4-yl}-1-methyl-1H-benzimidazole]	18 nM	92%	35 nM
CCS(=O)(=O)NC1CCN(c2cc(-c3nc4ccccc4n3C)c(F)cn2)CC1 [Example D-9, N-{1-[5-fluoro-4-(1-methyl-1H-benzimidazol-2-yl)pyridin-2-yl]piperidin-4-yl}ethanesulfonamide]	3.9 nM	99%	5 nM
Cn1c(-c2cc(N3CCC(N4CCNC(=O)CC4)CC3)ncc2Cl)nc2ccccc21 [Example A-91, 1-{1-[5-chloro-4-(1-methyl-1H-benzimidazol-2-yl)pyridin-2-yl]piperidin-4-yl}-1,4-diazepan-5-one]	16 nM	88%	55 nM
Cn1c(-c2cc(N3CCC(OCC(=O)NC4CC4)CC3)ncc2Cl)nc2ccccc21 [Example A-59, 2-({1-[5-chloro-4-(1-methyl-1H-benzimidazol-2-yl)pyridin-2-yl]piperidin-4-yl}oxy)-N-cyclopropylacetamide]	3 nM	96%	12 nM
Cn1c(-c2cc(N3CCN4C[C@H](O)CC4C3)ncc2Cl)nc2ccccc21 (stereo in doubt) [Example A-60, (7R,8aS)-2-[5-chloro-4-(1-methyl-1H-benzimidazol-2-yl)pyridin-2-yl]octahydropyrrolo[1,2-a]pyrazin-7-ol]	22 nM	96%	27 nM
Cn1c(-c2cc(N3CCC(OC(N)=O)CC3)ncc2Cl)nc2ccccc21 [Example A-203, 1-[5-chloro-4-(1-methyl-1H-benzimidazol-2-yl)pyridin-2-yl]piperidin-4-yl carbamate]	12.5 nM	94%	11 nM
CN(C)C(=O)COC1CCN(c2cc(-c3nc4ccccc4n3C)c(Cl)cn2)C1 (stereo in doubt) [Example A-126, 2-({(3R)-1-[5-chloro-4-(1-methyl-1H-benzimidazol-2-yl)pyridin-2-yl]pyrrolidin-3-yl}oxy)-N,N-dimethylacetamide]	109 nM	57%	–
Cn1c(-c2cc(N3CCNCC3)ncc2Cl)nc2ccccc21 [Example A-23, 2-(5-chloro-2-piperazin-1-ylpyridin-4-yl)-1-methyl-1H-benzimidazole]	31 nM	88%	56 nM
CC(=O)N1CCC(N(C)c2cc(-c3nc4ccccc4n3C)c(Cl)cn2)CC1 [Example A-58, N-(1-acetylpiperidin-4-yl)-5-chloro-N-methyl-4-(1-methyl-1H-benzimidazol-2-yl)pyridin-2-amine]	31 nM	97%	15 nM
CC(=O)N1CCN(c2cc(-c3nc4ccccc4n3C)c(Cl)cn2)[C@H](C)C1 [Example A-168, 2-{2-[(2R)-4-acetyl-2-methylpiperazin-1-yl]-5-chloropyridin-4-yl}-1-methyl-1H-benzimidazole]	7 nM	97%	8 nM
CC(=O)N1CCN(c2cc(-c3nc4ccccc4n3C)c(Cl)cn2)C[C@@H]1C [Example A-162, 2-{2-[(3S)-4-acetyl-3-methylpiperazin-1-yl]-5-chloropyridin-4-yl}-1-methyl-1H-benzimidazole]	5 nM	91%	7 nM
CNC(=O)COC1CCN(c2cc(-c3nc4ccccc4n3C)c(Cl)cn2)CC1 [Example A-84, 2-({1-[5-chloro-4-(1-methyl-1H-benzimidazol-2-yl)pyridin-2-yl]piperidin-4-yl}oxy)-N-methylacetamide]	42 nM	91%	21 nM
Cn1c(-c2cc(N3CCOCC(Cc4ncccn4)C3)ncc2Cl)nc2ccccc21 (centres unmarked) [Example A-112, 2-{5-chloro-2-[6-(pyrimidin-2-ylmethyl)-1,4-oxazepan-4-yl]pyridin-4-yl}-1-methyl-1H-benzimidazole]	116 nM	72%	159 nM
CN(C1CN(c2cc(-c3nc4ccccc4n3C)c(Cl)cn2)C1)S(C)(=O)=O [Example A-149, N-{1-[5-chloro-4-(1-methyl-1H-benzimidazol-2-yl)pyridin-2-yl]azetidin-3-yl}-N-methylmethanesulfonamide]	8 nM	95%	14 nM
Cn1c(-c2cc(N3CCn4c(nnc4C(F)F)C3)ncc2Cl)nc2ccccc21 [Example A-101, 7-[5-chloro-4-(1-methyl-1H-benzimidazol-2-yl)pyridin-2-yl]-3-(difluoromethyl)-5,6,7,8-tetrahydro[1,2,4]triazolo[4,3-a]pyrazine]	95 nM	81%	103 nM
